Columns and labels:
JAK2 = JAK2 (Homo sapiens (Human), UniProt O60674); format: biochemical
Protocol: (§1) Assay 1: Biochemical JAK and Off-Target Kinase Assays
(§2) A panel of four LanthaScreen JAK biochemical assays (JAK1, 2, 3 and Tyk2) were carried in a common kinase reaction buffer (50 mM HEPES, pH 7.5, 0.01% Brij-35, 10 mM MgCl2, and 1 mM EGTA). Recombinant GST-tagged JAK enzymes and a GFP-tagged STAT1 peptide substrate were obtained from Life Technologies.
(§3) Serially diluted compounds were pre-incubated with each of the four JAK enzymes and the substrate in white 384-well microplates (Corning) at ambient temperature for 1 h. ATP was subsequently added to initiate the kinase reactions in 10 μL total volume, with 1% DMSO. […] Kinase reactions were allowed to proceed for 1 hour at ambient temperature before a 10 μL preparation of EDTA (10 mM final concentration) and Tb-anti-pSTAT1 (pTyr701) antibody (Life Technologies, 2 nM final concentration) in TR-FRET dilution buffer (Life Technologies) was added. The plates were allowed to incubate at ambient temperature for 1 h before being read on the EnVision reader (Perkin Elmer).
(§4) Results were expressed as pIC50 (negative logarithm of IC50) and subsequently converted to pKi (negative logarithm of dissociation constant, Ki) using the Cheng-Prusoff equation.

JAK1 = JAK1 (Homo sapiens (Human), UniProt P23458); format: biochemical
Sequence of JAK1 (P23458 whole entry): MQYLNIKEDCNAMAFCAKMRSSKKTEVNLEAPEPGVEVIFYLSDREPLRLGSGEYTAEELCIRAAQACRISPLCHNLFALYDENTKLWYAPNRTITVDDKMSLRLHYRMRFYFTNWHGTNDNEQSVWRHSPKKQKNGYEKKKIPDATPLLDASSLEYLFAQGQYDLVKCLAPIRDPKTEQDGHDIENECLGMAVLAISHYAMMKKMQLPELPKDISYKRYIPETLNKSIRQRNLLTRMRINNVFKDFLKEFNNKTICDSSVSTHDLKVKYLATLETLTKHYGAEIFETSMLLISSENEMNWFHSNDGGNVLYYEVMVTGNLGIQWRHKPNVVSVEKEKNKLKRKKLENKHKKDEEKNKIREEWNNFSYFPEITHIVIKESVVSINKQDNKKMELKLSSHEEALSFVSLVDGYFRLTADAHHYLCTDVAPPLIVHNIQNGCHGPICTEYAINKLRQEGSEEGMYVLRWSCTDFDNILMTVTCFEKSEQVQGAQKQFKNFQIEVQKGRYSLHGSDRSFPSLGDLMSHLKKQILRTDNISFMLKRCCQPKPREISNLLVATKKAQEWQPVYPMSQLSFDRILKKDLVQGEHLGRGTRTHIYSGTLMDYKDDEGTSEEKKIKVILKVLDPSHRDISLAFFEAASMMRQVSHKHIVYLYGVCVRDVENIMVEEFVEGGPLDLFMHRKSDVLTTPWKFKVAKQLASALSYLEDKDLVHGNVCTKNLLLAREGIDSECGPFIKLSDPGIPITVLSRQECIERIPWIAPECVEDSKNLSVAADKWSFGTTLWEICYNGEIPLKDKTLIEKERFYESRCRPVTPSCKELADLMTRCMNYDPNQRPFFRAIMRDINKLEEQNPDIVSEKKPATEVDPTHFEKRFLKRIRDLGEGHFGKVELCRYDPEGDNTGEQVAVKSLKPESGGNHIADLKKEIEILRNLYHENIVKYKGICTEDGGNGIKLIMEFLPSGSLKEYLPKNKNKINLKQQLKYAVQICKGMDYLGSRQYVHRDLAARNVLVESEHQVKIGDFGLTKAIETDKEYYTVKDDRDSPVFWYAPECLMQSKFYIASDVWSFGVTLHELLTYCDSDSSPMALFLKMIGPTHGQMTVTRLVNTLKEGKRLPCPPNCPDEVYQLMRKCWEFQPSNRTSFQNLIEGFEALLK
Protocol: as §1, §2, §3, §4

TYK2 = TYK2 (Homo sapiens (Human), UniProt P29597); format: biochemical
Sequence of TYK2 (P29597 whole entry): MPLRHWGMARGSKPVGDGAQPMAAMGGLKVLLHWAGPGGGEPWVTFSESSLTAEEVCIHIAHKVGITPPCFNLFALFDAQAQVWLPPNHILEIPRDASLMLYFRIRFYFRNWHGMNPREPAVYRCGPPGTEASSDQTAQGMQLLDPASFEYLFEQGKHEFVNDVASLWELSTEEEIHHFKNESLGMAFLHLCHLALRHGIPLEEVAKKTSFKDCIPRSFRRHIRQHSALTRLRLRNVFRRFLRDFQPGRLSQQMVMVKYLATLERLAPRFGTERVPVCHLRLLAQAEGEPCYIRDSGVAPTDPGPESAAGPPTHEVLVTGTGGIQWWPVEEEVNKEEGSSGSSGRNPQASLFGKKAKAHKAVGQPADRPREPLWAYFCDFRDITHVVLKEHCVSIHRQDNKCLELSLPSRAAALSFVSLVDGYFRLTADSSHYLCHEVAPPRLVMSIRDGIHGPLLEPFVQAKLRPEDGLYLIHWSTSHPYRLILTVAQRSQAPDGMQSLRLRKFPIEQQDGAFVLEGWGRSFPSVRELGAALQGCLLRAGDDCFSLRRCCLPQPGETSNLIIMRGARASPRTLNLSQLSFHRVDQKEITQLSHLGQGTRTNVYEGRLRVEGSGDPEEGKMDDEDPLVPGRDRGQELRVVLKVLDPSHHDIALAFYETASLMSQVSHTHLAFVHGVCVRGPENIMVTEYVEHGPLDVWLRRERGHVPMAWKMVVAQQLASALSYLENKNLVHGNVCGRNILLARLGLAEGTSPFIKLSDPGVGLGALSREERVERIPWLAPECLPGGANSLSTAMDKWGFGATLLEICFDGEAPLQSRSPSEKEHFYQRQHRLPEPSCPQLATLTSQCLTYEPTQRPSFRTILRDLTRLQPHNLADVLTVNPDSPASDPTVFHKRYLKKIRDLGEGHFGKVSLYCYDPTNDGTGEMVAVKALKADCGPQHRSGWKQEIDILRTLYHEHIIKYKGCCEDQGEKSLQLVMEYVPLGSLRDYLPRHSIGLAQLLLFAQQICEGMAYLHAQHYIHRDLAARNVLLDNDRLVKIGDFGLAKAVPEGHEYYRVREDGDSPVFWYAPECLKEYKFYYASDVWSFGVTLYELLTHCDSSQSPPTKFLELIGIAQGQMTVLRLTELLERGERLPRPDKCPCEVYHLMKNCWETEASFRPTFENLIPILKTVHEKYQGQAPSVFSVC
Protocol: as §1, §2, §3, §4

[1] = tested on: IL-13 induced STAT6 phosphorylation in BEAS-2B human lung epithelial cells; conditions: BEAS-2B cells
[2] = tested on: IL-4 induced STAT6 phosphorylation in THP-1 human monocytic cells; conditions: THP-1 cells
JAK3 = JAK3 (Homo sapiens (Human), UniProt P52333); test: Biochemical JAK assay (LanthaScreen), JAK3
Sequence of JAK3 (P52333 whole entry): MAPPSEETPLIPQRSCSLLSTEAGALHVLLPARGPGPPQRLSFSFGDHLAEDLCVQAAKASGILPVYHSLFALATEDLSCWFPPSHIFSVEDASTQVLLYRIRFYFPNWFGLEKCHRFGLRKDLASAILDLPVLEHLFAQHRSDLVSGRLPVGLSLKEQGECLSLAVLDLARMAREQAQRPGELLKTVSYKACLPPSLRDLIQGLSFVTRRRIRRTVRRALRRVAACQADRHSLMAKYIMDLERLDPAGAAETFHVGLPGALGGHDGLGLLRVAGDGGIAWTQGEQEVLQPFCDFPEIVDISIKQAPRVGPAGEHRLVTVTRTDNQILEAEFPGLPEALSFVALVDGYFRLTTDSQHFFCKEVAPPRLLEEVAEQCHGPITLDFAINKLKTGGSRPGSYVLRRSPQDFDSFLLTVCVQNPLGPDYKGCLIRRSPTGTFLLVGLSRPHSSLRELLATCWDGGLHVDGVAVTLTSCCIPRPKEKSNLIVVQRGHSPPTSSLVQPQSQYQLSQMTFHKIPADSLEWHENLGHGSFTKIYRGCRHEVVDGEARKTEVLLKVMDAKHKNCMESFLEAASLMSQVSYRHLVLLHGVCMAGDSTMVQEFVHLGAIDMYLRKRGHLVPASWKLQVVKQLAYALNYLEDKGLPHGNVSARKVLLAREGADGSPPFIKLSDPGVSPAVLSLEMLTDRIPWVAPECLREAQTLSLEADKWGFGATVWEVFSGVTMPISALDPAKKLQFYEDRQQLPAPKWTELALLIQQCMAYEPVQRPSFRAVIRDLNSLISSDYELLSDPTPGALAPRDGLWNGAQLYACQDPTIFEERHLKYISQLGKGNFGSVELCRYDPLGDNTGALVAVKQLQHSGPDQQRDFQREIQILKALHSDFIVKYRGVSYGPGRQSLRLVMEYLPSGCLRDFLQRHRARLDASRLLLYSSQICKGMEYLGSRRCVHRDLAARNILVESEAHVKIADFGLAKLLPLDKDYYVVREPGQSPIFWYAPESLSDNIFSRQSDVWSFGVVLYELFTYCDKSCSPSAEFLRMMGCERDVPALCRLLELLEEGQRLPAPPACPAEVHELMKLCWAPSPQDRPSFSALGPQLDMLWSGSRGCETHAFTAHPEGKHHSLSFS
Protocol: as §1, §2
Serially diluted compounds were pre-incubated with each of the four JAK enzymes and the substrate in white 384-well microplates (Corning) at ambient temperature for 1 h. ATP was subsequently added to initiate the kinase reactions in 10 μL total volume, with 1% DMSO. […] The plates were allowed to incubate at ambient temperature for 1 h before being read on the EnVision reader (Perkin Elmer).
as §4

[3] = 5% to 90% relative humidity, room temperature; listed as Crystalline 3-(1R,3s,5S)-3-((7-((5-methyl-1H-pyrazol-3-yl)amino)-1,6-naphthyrid))
Protocol: A weighed sample was used and the humidity was lowest possible value (close to 0% RH) at the start of the analysis. The DMS analysis consisted of an initial drying step (0% RH) for 120 minutes, followed by two cycles of sorption and desorption with a scan rate of 5% RH/step over the humidity range of 5% RH to 90% RH. The DMS run was performed isothermally at 25° C.

[4] = tested on: splenic NK, B and T cells; test: Immunosuppression effects in mouse splenic natural killer (NK) cells; format: in vivo, Balb/C mice; conditions: mice, three days
Protocol: Adult male Balb/C mice (12-14 weeks of age) from Harlan were used for the study. […] Spleens were harvested 1 or 2 h post last dose and crushed immediately for cell subtype staining. Prior to fixation, fluorophore-labelled antibodies for CD19 (FITC; B cells), CD3e (PE; pan T cells) and DX5 (APC; NK cells) were incubated with splenocyte samples from each animal to allow for simultaneous, multiple subtype % analysis on the flow cytometer. The number of total spleen cells for each animal was measured by Scepter™ 2.0 Handheld Automated Cell Counter. The absolute number of lymphocyte subtype population (e.g., splenic B, T and NK cells) was calculated from the percentage of each subtype times total spleen cells for each animal. A one way ANOVA, with Dunnett's post hoc test, was used to compare the splenic lymphocytes number of the vehicle and test compound groups. The a level was set at p<0.05. Data were presented as the mean±SEM for each group.

Sequence of JAK2 (O60674 whole entry): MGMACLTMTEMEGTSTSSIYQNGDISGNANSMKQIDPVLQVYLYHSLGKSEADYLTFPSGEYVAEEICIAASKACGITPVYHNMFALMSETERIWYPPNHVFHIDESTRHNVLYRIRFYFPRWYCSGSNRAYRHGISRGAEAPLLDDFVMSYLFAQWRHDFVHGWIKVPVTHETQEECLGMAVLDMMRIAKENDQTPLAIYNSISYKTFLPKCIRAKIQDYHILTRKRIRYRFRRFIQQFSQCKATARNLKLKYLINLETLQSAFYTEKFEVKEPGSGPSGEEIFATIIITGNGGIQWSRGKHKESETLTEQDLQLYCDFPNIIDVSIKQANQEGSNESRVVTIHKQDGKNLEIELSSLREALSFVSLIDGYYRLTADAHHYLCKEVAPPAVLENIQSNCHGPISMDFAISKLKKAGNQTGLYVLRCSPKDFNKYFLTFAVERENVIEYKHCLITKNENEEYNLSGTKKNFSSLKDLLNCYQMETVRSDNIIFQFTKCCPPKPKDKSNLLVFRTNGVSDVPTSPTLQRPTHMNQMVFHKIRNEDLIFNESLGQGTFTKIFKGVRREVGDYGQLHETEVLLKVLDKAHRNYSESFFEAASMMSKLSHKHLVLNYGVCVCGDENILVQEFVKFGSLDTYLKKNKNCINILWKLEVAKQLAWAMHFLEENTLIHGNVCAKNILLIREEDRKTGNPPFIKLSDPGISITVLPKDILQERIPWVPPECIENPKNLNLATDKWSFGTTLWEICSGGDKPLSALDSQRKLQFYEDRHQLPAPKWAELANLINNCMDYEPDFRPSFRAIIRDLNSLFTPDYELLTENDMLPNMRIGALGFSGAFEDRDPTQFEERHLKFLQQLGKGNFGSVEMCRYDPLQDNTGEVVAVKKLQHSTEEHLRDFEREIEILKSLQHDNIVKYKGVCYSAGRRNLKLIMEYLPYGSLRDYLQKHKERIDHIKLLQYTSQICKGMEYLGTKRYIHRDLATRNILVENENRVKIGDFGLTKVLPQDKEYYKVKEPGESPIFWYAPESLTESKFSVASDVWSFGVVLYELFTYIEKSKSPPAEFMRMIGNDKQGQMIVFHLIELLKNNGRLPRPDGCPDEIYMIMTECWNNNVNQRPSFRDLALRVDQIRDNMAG

Cc1cc(Nc2cc3ncccc3c(N[C@@H]3C[C@H]4CCC[C@@H](C3)N4C(=O)C3(C#N)CC3)n2)n[nH]1 [Example 2-20]
JAK 2 (pKi) (JAK2): B (B represents a pKi value between 9 and 10 (Ki between 1 nM and 0.1 nM))
JAK 1 (pKi) (JAK1): B (B represents a pKi value between 9 and 10 (Ki between 1 nM and 0.1 nM))
Tyk 2 (pKi) (TYK2): C (C represents a pKi value between 7 and 9 (Ki between 100 nM and 1 nM))
BEAS2B pIC50 [1]: A (A represents a pEC50 value ≥7.5 (EC50≤32 nM))
THP-1 IL4 pIC50 [2]: A (A represents a pEC50 value ≥7.5 (EC50≤32 nM))

COC(=O)c1cnc2cc(Nc3cc(C)[nH]n3)nc(N[C@@H]3C[C@H]4CC[C@@H](C3)N4CCCF)c2c1 [Example 6-44]
JAK 1 (pKi) (JAK1): B (B represents a pKi value between 9 and 10 (Ki between 1 nM and 0.1 nM))

COC(=O)c1cnc2cc(Nc3cc(C)[nH]n3)nc(N[C@@H]3C[C@H]4CCC[C@@H](C3)N4C3CCOC(=O)C3)c2c1 (stereo partly drawn) [Example 6-48]
JAK 1 (pKi) (JAK1): B (B represents a pKi value between 9 and 10 (Ki between 1 nM and 0.1 nM))
Tyk 2 (pKi) (TYK2): C (C represents a pKi value between 7 and 9 (Ki between 100 nM and 1 nM))
JAK 3 (pKi) (JAK3): C (C represents a pKi value between 7 and 9 (Ki between 100 nM and 1 nM))
THP-1 IL4 pIC50 [2]: B (B represents a pEC50 value between 6.7 and 7.5 (EC50 between 200 nM and 32 nM))

Cc1cc(Nc2cc3ncccc3c(N[C@@H]3C[C@H]4CC[C@@H](C3)N4C(=O)C3(C(F)(F)F)CC3)n2)n[nH]1 [Example 2-7]
JAK 1 (pKi) (JAK1): B (B represents a pKi value between 9 and 10 (Ki between 1 nM and 0.1 nM))
Tyk 2 (pKi) (TYK2): C (C represents a pKi value between 7 and 9 (Ki between 100 nM and 1 nM))
JAK 3 (pKi) (JAK3): C (C represents a pKi value between 7 and 9 (Ki between 100 nM and 1 nM))
THP-1 IL4 pIC50 [2]: B (B represents a pEC50 value between 6.7 and 7.5 (EC50 between 200 nM and 32 nM))

Cc1cnc2cc(Nc3cc(C)[nH]n3)nc(N[C@@H]3C[C@H]4CC[C@@H](C3)N4S(C)(=O)=O)c2c1 [Example 6-5]
JAK 1 (pKi) (JAK1): B (B represents a pKi value between 9 and 10 (Ki between 1 nM and 0.1 nM))
Tyk 2 (pKi) (TYK2): B (B represents a pKi value between 9 and 10 (Ki between 1 nM and 0.1 nM))
JAK 3 (pKi) (JAK3): C (C represents a pKi value between 7 and 9 (Ki between 100 nM and 1 nM))
BEAS2B pIC50 [1]: A (A represents a pEC50 value ≥7.5 (EC50≤32 nM))
THP-1 IL4 pIC50 [2]: A (A represents a pEC50 value ≥7.5 (EC50≤32 nM))

Cc1cc(Nc2cc3ncccc3c(N[C@@H]3C[C@H]4CCC[C@@H](C3)N4C(=O)C3(C(F)(F)F)CC3)n2)n[nH]1 [Example 2-19]
JAK 1 (pKi) (JAK1): B (B represents a pKi value between 9 and 10 (Ki between 1 nM and 0.1 nM))
Tyk 2 (pKi) (TYK2): B (B represents a pKi value between 9 and 10 (Ki between 1 nM and 0.1 nM))
JAK 3 (pKi) (JAK3): C (C represents a pKi value between 7 and 9 (Ki between 100 nM and 1 nM))
THP-1 IL4 pIC50 [2]: A (A represents a pEC50 value ≥7.5 (EC50≤32 nM))

COCC1CCCN1S(=O)(=O)N1[C@@H]2CCC[C@H]1C[C@H](Nc1nc(Nc3cc(C)[nH]n3)cc3ncccc13)C2 (stereo partly drawn) [Example 4-28]
JAK 2 (pKi) (JAK2): B (B represents a pKi value between 9 and 10 (Ki between 1 nM and 0.1 nM))
Tyk 2 (pKi) (TYK2): B (B represents a pKi value between 9 and 10 (Ki between 1 nM and 0.1 nM))
JAK 3 (pKi) (JAK3): C (C represents a pKi value between 7 and 9 (Ki between 100 nM and 1 nM))
THP-1 IL4 pIC50 [2]: A (A represents a pEC50 value ≥7.5 (EC50≤32 nM))

Cc1cc(Nc2cc3ncccc3c(N[C@@H]3C[C@H]4CC[C@@H](C3)N4CCC#N)n2)n[nH]1 [Form I, 3-((1R,3s,5S)-3-((7-((5-methyl-1H-pyrazol-3-yl)amino)-1,6-naphthyridin-5-yl)amino)-8-azabicyclo[3.2.1]octan-8-yl)propanenitrile]
weight gain / weight change on exposure to humidity [3]: less than 0.15%

Cc1cnc2cc(Nc3cc(C)[nH]n3)nc(N[C@@H]3C[C@H]4CCC[C@@H](C3)N4S(C)(=O)=O)c2c1 [Example 6-8]
JAK 1 (pKi) (JAK1): B (B represents a pKi value between 9 and 10 (Ki between 1 nM and 0.1 nM))
Tyk 2 (pKi) (TYK2): B (B represents a pKi value between 9 and 10 (Ki between 1 nM and 0.1 nM))
JAK 3 (pKi) (JAK3): B (B represents a pKi value between 9 and 10 (Ki between 1 nM and 0.1 nM))
BEAS2B pIC50 [1]: A (A represents a pEC50 value ≥7.5 (EC50≤32 nM))
THP-1 IL4 pIC50 [2]: A (A represents a pEC50 value ≥7.5 (EC50≤32 nM))

C[C@@H]1CCN(C(=O)CC#N)C[C@@H]1N(C)c1ncnc2[nH]ccc12 [tofacitinib, reference compound]
splenic NK cell counts ([4]; 30 mg/kg PO BID): significantly decreased
treatment effect on B and T cell populations ([4]; PO BID): No treatment effect

Cc1cc(Nc2cc3ncccc3c(N[C@@H]3C[C@H]4CC[C@@H](C3)N4C(=O)C3(C#N)CC3)n2)n[nH]1 [Example 2-8]
JAK 2 (pKi) (JAK2): B (B represents a pKi value between 9 and 10 (Ki between 1 nM and 0.1 nM))
JAK 1 (pKi) (JAK1): B (B represents a pKi value between 9 and 10 (Ki between 1 nM and 0.1 nM))
Tyk 2 (pKi) (TYK2): C (C represents a pKi value between 7 and 9 (Ki between 100 nM and 1 nM))
THP-1 IL4 pIC50 [2]: B (B represents a pEC50 value between 6.7 and 7.5 (EC50 between 200 nM and 32 nM))

Source: patent US10947254B2, “Methods for treating ulcerative colitis using 3-((1R,3s,5S)-3-((7-((5-methyl-1H-pyrazol-3-yl)amino)-1,6-naphthyridin-5-yl)amino)-8-azabicyclo[3.2.1]octan-8-yl)propanenitrile” (priority 2015, dated 2021)
